Assay results reported in the supplement of paper PMC10307832.

How the values were obtained:
Assay in all cases: relative viability (nuclei count vs DMSO), 5 days (fraction); higher = more cells survive
EKVX = system: EKVX
In short: (§1)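 One day after seeding in 1536-well plates, lung cancer cell lines were dosed by pin tool. Dosing was either single-drug or a fixed anchor-drug dose plus five library-drug doses (not always all listed) in √10 steps. After 5 days, nuclei were stained in one fix-and-stain step and counted on 4× images, and relative viability is the nuclei count of treated wells over that of vehicle wells, given as the median of duplicate plates.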

ChaGo-K-1 = system: ChaGo-K-1
In short: as §1

NCI-H1666 = system: NCI-H1666
In short: as §1

LC-2-ad = system: LC-2-ad
In short: as §1

A549 = system: A549
In short: as §1

NCI-H1623 = system: NCI-H1623
In short: as §1

Calu-6 = system: Calu-6
In short: as §1

NCI-H1299 = system: NCI-H1299
In short: as §1

EBC-1 = system: EBC-1
In short: as §1

NCI-H1703 = system: NCI-H1703
In short: as §1

IA-LM = system: IA-LM
In short: as §1

`Cc1csc(=NC2CCCCC2)n1/N=C/c1ccc(O)c(O)c1O` [MIM1] + N=C(N)NC(=N)NCCc1ccccc1 [Phenformin] (partner 250 µM) was tested, and the relative viability (EKVX; first compound 0.2 µM) was 0.253, the relative viability (EKVX; first compound 0.6325 µM) was 0.144 and the relative viability (EKVX; first compound 2 µM) was 0.213. The relative viability (EKVX; first compound 6.325 µM) was 0.209, the relative viability (EKVX; first compound 20 µM) was 0.198 and the relative viability (ChaGo-K-1; first compound 0.2 µM) was 0.521. The relative viability (ChaGo-K-1; first compound 0.6325 µM) was 0.49, the relative viability (ChaGo-K-1; first compound 2 µM) was 0.45 and the relative viability (ChaGo-K-1; first compound 6.325 µM) was 0.227. The relative viability (ChaGo-K-1; first compound 20 µM) was 0.171, the relative viability (NCI-H1666; first compound 0.2 µM) was 0.578 and the relative viability (NCI-H1666; first compound 0.6325 µM) was 0.607. It also gave a relative viability (NCI-H1666; first compound 2 µM) of 0.517, a relative viability (NCI-H1666; first compound 6.325 µM) of 0.456 and a relative viability (NCI-H1666; first compound 20 µM) of 0.26. The relative viability (LC-2-ad; first compound 0.2 µM) was 0.679, the relative viability (LC-2-ad; first compound 0.6325 µM) was 0.502 and the relative viability (LC-2-ad; first compound 2 µM) was 0.537. It also gave a relative viability (LC-2-ad; first compound 6.325 µM) of 0.389, a relative viability (LC-2-ad; first compound 20 µM) of 0.217 and a relative viability (A549; first compound 0.2 µM) of 0.164. The relative viability (A549; first compound 0.6325 µM) was 0.108, the relative viability (A549; first compound 2 µM) was 0.144 and the relative viability (A549; first compound 6.325 µM) was 0.108. For the same compound, the relative viability (A549; first compound 20 µM) was 0.0481, the relative viability (NCI-H1623; first compound 0.2 µM) was 0.561 and the relative viability (NCI-H1623; first compound 0.6325 µM) was 0.428. The relative viability (NCI-H1623; first compound 2 µM) was 0.587, the relative viability (NCI-H1623; first compound 6.325 µM) was 0.562 and the relative viability (NCI-H1623; first compound 20 µM) was 0.374.
`Cc1csc(=NC2CCCCC2)n1/N=C/c1ccc(O)c(O)c1O` [MIM1] + COc1cc2c(Oc3ccc(NC(=O)C4(C(=O)Nc5ccc(F)cc5)CC4)cc3F)ccnc2cc1OCCCN1CCOCC1 [Foretinib] (partner 0.25 µM) gave a relative viability (Calu-6; first compound 0.2 µM) of 0.847, a relative viability (Calu-6; first compound 0.6325 µM) of 0.894 and a relative viability (Calu-6; first compound 2 µM) of 0.816. It also gave a relative viability (Calu-6; first compound 6.325 µM) of 0.797, a relative viability (Calu-6; first compound 20 µM) of 0.318 and a relative viability (EKVX; first compound 0.2 µM) of 0.766. It also gave a relative viability (EKVX; first compound 0.6325 µM) of 0.234, a relative viability (EKVX; first compound 2 µM) of 0.75 and a relative viability (EKVX; first compound 6.325 µM) of 0.379. The relative viability (EKVX; first compound 20 µM) was 0.422, the relative viability (NCI-H1299; first compound 0.2 µM) was 1.15 and the relative viability (NCI-H1299; first compound 0.6325 µM) was 1.09. The relative viability (NCI-H1299; first compound 2 µM) was 1.14, the relative viability (NCI-H1299; first compound 6.325 µM) was 1.06 and the relative viability (NCI-H1299; first compound 20 µM) was 1.06. The relative viability (EBC-1; first compound 0.2 µM) was 0.108, the relative viability (EBC-1; first compound 0.6325 µM) was 0.102 and the relative viability (EBC-1; first compound 2 µM) was 0.119. For the same compound, the relative viability (EBC-1; first compound 6.325 µM) was 0.106, the relative viability (EBC-1; first compound 20 µM) was 0.119 and the relative viability (ChaGo-K-1; first compound 0.2 µM) was 0.973. It also gave a relative viability (ChaGo-K-1; first compound 0.6325 µM) of 1, a relative viability (ChaGo-K-1; first compound 2 µM) of 0.774 and a relative viability (ChaGo-K-1; first compound 6.325 µM) of 0.771. For the same compound, the relative viability (ChaGo-K-1; first compound 20 µM) was 0.282, the relative viability (NCI-H1703; first compound 0.2 µM) was 0.417 and the relative viability (NCI-H1703; first compound 0.6325 µM) was 0.391. It also gave a relative viability (NCI-H1703; first compound 2 µM) of 0.375, a relative viability (NCI-H1703; first compound 6.325 µM) of 0.296 and a relative viability (NCI-H1703; first compound 20 µM) of 0.181. For the same compound, the relative viability (NCI-H1666; first compound 0.2 µM) was 0.943, the relative viability (NCI-H1666; first compound 0.6325 µM) was 0.962 and the relative viability (NCI-H1666; first compound 2 µM) was 1. The relative viability (NCI-H1666; first compound 6.325 µM) was 0.724, the relative viability (NCI-H1666; first compound 20 µM) was 0.597 and the relative viability (LC-2-ad; first compound 0.2 µM) was 0.896. For the same compound, the relative viability (LC-2-ad; first compound 0.6325 µM) was 0.783, the relative viability (LC-2-ad; first compound 2 µM) was 0.745 and the relative viability (LC-2-ad; first compound 6.325 µM) was 0.631. For the same compound, the relative viability (LC-2-ad; first compound 20 µM) was 0.159, the relative viability (A549; first compound 0.2 µM) was 0.917 and the relative viability (A549; first compound 0.6325 µM) was 0.939. It also gave a relative viability (A549; first compound 2 µM) of 1.02, a relative viability (A549; first compound 6.325 µM) of 0.771 and a relative viability (A549; first compound 20 µM) of 0.144. For the same compound, the relative viability (IA-LM; first compound 0.2 µM) was 1.11, the relative viability (IA-LM; first compound 0.6325 µM) was 1.29 and the relative viability (IA-LM; first compound 2 µM) was 1.28. The relative viability (IA-LM; first compound 6.325 µM) was 0.842, the relative viability (IA-LM; first compound 20 µM) was 0.476 and the relative viability (NCI-H1623; first compound 0.2 µM) was 0.88. The relative viability (NCI-H1623; first compound 0.6325 µM) was 0.721, the relative viability (NCI-H1623; first compound 2 µM) was 0.914 and the relative viability (NCI-H1623; first compound 6.325 µM) was 0.718. The relative viability (NCI-H1623; first compound 20 µM) was 0.409.
